Experimental data as given in patent US12371454B2, “Cyclic peptide compound having Kras inhibitory action” (priority 2019, dated 2025).
pIC50: −log10 of the molar value. Starred links: 1 amine or outer side, 2 acyl side, 3 side chain; linkers in the order of their positions; H or OH if unused. Positions of bridges follow the written chain, without caps; N, C: chain ends. Non-standard residues stand in square brackets, D forms with d. Residues, ends and D or L forms follow the SMILES beside them. *: point of attachment. hPhe(3,5-F2-4-CF3) = N[C@@H](CCc1cc(F)c(C(F)(F)F)c(F)c1)C(=O)O; hPhe(3-Cl-4-CF3) = N[C@@H](CCc1ccc(C(F)(F)F)c(Cl)c1)C(=O)O; NMeDab(N,N-(CH2CF2CH2)) = CN[C@@H](CCN1CC(F)(F)C1)C(=O)O; hPhe(3-F,4-CF3) = N[C@@H](CCc1ccc(C(F)(F)F)c(F)c1)C(=O)O; NMePhe(4-CF3) = CN[C@@H](Cc1ccc(C(F)(F)F)cc1)C(=O)O; NMeAbu(4,4,4-F3) = CN[C@@H](CC(F)(F)F)C(=O)O; NMePhe(4-Cl) = CN[C@@H](Cc1ccc(Cl)cc1)C(=O)O; NMePhe(4-F) = CN[C@@H](Cc1ccc(F)cc1)C(=O)O; NMedβ3hAla = C[C@H](CC(=O)[*:2])N(C)[*:1]; Abu(4,4,4-F3) = N[C@@H](CC(F)(F)F)C(=O)O; NMeGly(cPent) = CN[C@H](C(=O)O)C1CCCC1; Phe(3-I) = N[C@@H](Cc1cccc(I)c1)C(=O)O; Pro(4,4-F2) = O=C(O)[C@@H]1CC(F)(F)CN1; Met(O2) = CS(=O)(=O)CC[C@H](N)C(=O)O; NMeGly(cBu) = CN[C@H](C(=O)O)C1CCC1; NMeCha = CN[C@@H](CC1CCCCC1)C(=O)O; NMeChg = CN[C@H](C(=O)O)C1CCCCC1; N(CH2CH2)2CF2 = FC1(F)CCN(*)CC1; NMeD = CN[C@@H](CC(=O)O)C(=O)O; NMeL = CN[C@@H](CC(C)C)C(=O)O; NMeV = CN[C@H](C(=O)O)C(C)C; d(β3hA) = C[C@@H](N)CC(=O)O; NMeAbu = CC[C@H](NC)C(=O)O; NMeS = CN[C@@H](CO)C(=O)O; Iva = CC[C@](C)(N)C(=O)O; Morpholide = C1CN(*)CCO1; NMeA = CN[C@@H](C)C(=O)O; Nle = CCCC[C@H](N)C(=O)O; Piperidide = C1CCN(*)CC1; dNMeA = CN[C@H](C)C(=O)O; Ac5c = NC1(C(=O)O)CCCC1; Aze = O=C(O)[C@@H]1CCN1; Ac4c = NC1(C(=O)O)CCC1; Cyclopropyl = C1CC1*; Sar = CNCC(=O)O

Biological target: T1, Kras and SOS1 (biotin-tagged human Kras loaded with GDP, His-tagged human SOS1) (Homo sapiens, UniProt P01116, G12D)
T1 construct: made in house; host or cells: E. coli (stated for Kras only)
Assay: Protein-protein interaction inhibition between Kras and SOS1 (KrasGl2D-SOS PPI) using AlphaScreen
Type: binding
Conditions: AlphaScreen; biotin-tagged human Kras loaded with GDP, His-tagged human SOS1; read-out: KRAS G12D-SOS PPI IC50
Experimental: Protein-Protein Interaction Inhibition Between Kras and SOS1 (KrasGl2D-SOS PPI) Using AlphaScreen
Protein-protein interaction inhibition (PPI) between Kras and SOS1 was measured by energy transfer from nickel-conjugated donor beads to streptavidin-conjugated acceptor beads using biotin-tagged human Kras expressed in E. coli and loaded with GDP after purification and His-tagged human SOS1 enzyme. This measurement utilizes the phenomenon in which donor beads are irradiated with light at 680 nm, such that energy is transferred to acceptor beads through singlet oxygen and light at 520-620 nm is detected from the acceptor beads.
Inhibition of binding between K-ras and SOS1 is known to inhibit signaling downstream of Kras.

T1 sequence (P01116 1-188 isoform P01116-2 G12D): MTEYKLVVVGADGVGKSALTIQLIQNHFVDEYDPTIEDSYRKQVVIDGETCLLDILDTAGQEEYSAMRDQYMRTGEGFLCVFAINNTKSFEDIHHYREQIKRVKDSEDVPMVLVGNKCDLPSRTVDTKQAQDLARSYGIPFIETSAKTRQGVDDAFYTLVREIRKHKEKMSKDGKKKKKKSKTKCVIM

SMILES	pIC50
CC[C@H](C)[C@@H]1NC(=O)[C@H](CC(C)C)N(C)C(=O)C[C@@H](C(=O)N2CCCCC2)N(C)C(=O)[C@H](C2CCCC2)N(C)C(=O)C2(CCCC2)NC(=O)[C@H](CC(=O)N2CCC(F)(F)CC2)N(C)C(=O)[C@H](CCc2ccc(C(F)(F)F)c(Cl)c2)NC(=O)CN(C)C(=O)[C@H](CC2CCCCC2)N(C)C(=O)[C@@H]2CCN2C(=O)[C@H](C)N(C)C1=O [Compound 984] ([NMeL]I[NMeA][Aze][NMeCha][Sar][hPhe(3-Cl-4-CF3)][NMeD](N(CH2CH2)2CF2)[Ac5c][NMeGly(cPent)][NMeD]-Piperidide; lactam N-11)	7.60
CC[C@H](C)[C@@H]1NC(=O)[C@H](CC(F)(F)F)N(C)C(=O)C[C@@H](C(=O)N2CCOCC2)N(C)C(=O)[C@H](C2CCCCC2)N(C)C(=O)C2(CCCC2)NC(=O)[C@@H]2CC(F)(F)CN2C(=O)[C@H](CCc2cc(F)c(C(F)(F)F)c(F)c2)NC(=O)CN(C)C(=O)[C@H](Cc2ccc(C(F)(F)F)cc2)N(C)C(=O)CN(C)C(=O)CN(C)C1=O [Compound 1260] ([NMeAbu(4,4,4-F3)]I[Sar][Sar][NMePhe(4-CF3)][Sar][hPhe(3,5-F2-4-CF3)][Pro(4,4-F2)][Ac5c][NMeChg][NMeD]-Morpholide; lactam N-11)	9.27
CC[C@H](C)[C@@H]1NC(=O)[C@H](C)N(C)C(=O)C[C@@H](C)NC(=O)[C@H](C2CCCC2)N(C)C(=O)C2(CCCC2)NC(=O)[C@@H]2CCCN2C(=O)[C@H](CCc2ccc(C(F)(F)F)c(Cl)c2)NC(=O)CN(C)C(=O)[C@H](CC2CCCCC2)N(C)C(=O)CN(C)C(=O)CN(C)C1=O [Compound 1478] (cyclo([Ac5c][NMeGly(cPent)][d(β3hA)][NMeA]I[Sar][Sar][NMeCha][Sar][hPhe(3-Cl-4-CF3)]P))	8.52
CC[C@H](C)[C@@H]1NC(=O)[C@H](CC(C)C)N(C)C(=O)C[C@@H](C)N(C)C(=O)[C@H](C2CCCC2)N(C)C(=O)C2(CCC2)NC(=O)[C@@H]2CC(F)(F)CN2C(=O)[C@H](CCc2ccc(C(F)(F)F)c(Cl)c2)NC(=O)CN(C)C(=O)[C@H](CC2CCCCC2)N(C)C(=O)CN(C)C(=O)CN(C)C1=O [Compound 962] (cyclo([Ac4c][NMeGly(cPent)][NMedβ3hAla][NMeL]I[Sar][Sar][NMeCha][Sar][hPhe(3-Cl-4-CF3)][Pro(4,4-F2)]))	8.11
CC[C@H](C)[C@@H]1NC(=O)[C@H](CC(C)C)N(C)C(=O)C[C@@H](C(=O)N2CCCCC2)N(C)C(=O)[C@H](CC)N(C)C(=O)C2(CCCC2)NC(=O)[C@@H]2CCCN2C(=O)[C@H](CCc2ccc(C(F)(F)F)c(Cl)c2)NC(=O)CN(C)C(=O)[C@H](CC2CCCCC2)N(C)C(=O)CN(C)C(=O)CN(C)C1=O [Compound 1741] ([NMeL]I[Sar][Sar][NMeCha][Sar][hPhe(3-Cl-4-CF3)]P[Ac5c][NMeAbu][NMeD]-Piperidide; lactam N-11)	8.42
CCCC[C@@H]1NC(=O)[C@H](Cc2cccc(I)c2)NC(=O)CN(C)C(=O)[C@H](Cc2ccc(Cl)cc2)N(C)C(=O)CN(C)C(=O)CN(C)C(=O)[C@H]([C@@H](C)CC)NC(=O)[C@H](CC(C)C)N(C)C(=O)C[C@@H](C(=O)N2CCCCC2)N(C)C(=O)[C@H](CC(C)C)NC(=O)[C@H](Cc2ccc(Cl)cc2)N(C)C1=O [Compound 934] ([NMeL]I[Sar][Sar][NMePhe(4-Cl)][Sar][Phe(3-I)][Nle][NMePhe(4-Cl)]L[NMeD]-Piperidide; lactam N-11)	7.47
CC[C@H](C)[C@@H]1NC(=O)[C@H](C)N(C)C(=O)C[C@@H](C)NC(=O)[C@H](C2CCCC2)N(C)C(=O)C2(CCCC2)NC(=O)[C@@H]2CCCN2C(=O)[C@H](CCc2ccc(C(F)(F)F)c(Cl)c2)NC(=O)[C@@H](C)N(C)C(=O)[C@H](CC(C)C)N(C)C(=O)CN(C)C(=O)CN(C)C1=O [Compound 621] (cyclo([Ac5c][NMeGly(cPent)][d(β3hA)][NMeA]I[Sar][Sar][NMeL][dNMeA][hPhe(3-Cl-4-CF3)]P))	7.23
CC[C@H](C)[C@@H]1NC(=O)[C@H](CC(C)C)N(C)C(=O)C[C@@H](C)NC(=O)[C@H](CC(C)C)N(C)C(=O)C2(CCCC2)NC(=O)[C@@H]2CC(F)(F)CN2C(=O)[C@H](CCc2ccc(C(F)(F)F)c(F)c2)NC(=O)CN(C)C(=O)[C@H](CC2CCCCC2)N(C)C(=O)CN(C)C(=O)CN(C)C1=O [Compound 1509] (cyclo([Ac5c][NMeL][d(β3hA)][NMeL]I[Sar][Sar][NMeCha][Sar][hPhe(3-F,4-CF3)][Pro(4,4-F2)]))	7.64
CC[C@H](C)[C@@H]1NC(=O)[C@H](CC(C)C)N(C)C(=O)C[C@@H](C)NC(=O)[C@H](C(C)C)N(C)C(=O)[C@](C)(CC)NC(=O)[C@@H]2CCCN2C(=O)[C@H](CCc2ccc(C(F)(F)F)c(Cl)c2)NC(=O)CN(C)C(=O)[C@H](CC2CCCCC2)N(C)C(=O)CN(C)C(=O)CN(C)C1=O [Compound 149] (cyclo(I[Sar][Sar][NMeCha][Sar][hPhe(3-Cl-4-CF3)]P[Iva][NMeV][d(β3hA)][NMeL]))	7.29
CC[C@H](C)[C@@H]1NC(=O)[C@H](CC(C)C)N(C)C(=O)C[C@@H](C(=O)N2CCCCC2)N(C)C(=O)[C@H](C2CCCCC2)N(C)C(=O)[C@@H](C)NC(=O)[C@@H]2CCCN2C(=O)[C@H](CCc2ccc(C(F)(F)F)c(Cl)c2)NC(=O)CN(C)C(=O)[C@H](CC2CCCCC2)N(C)C(=O)CN(C)C(=O)CN(C)C1=O [Compound 917] ([NMeL]I[Sar][Sar][NMeCha][Sar][hPhe(3-Cl-4-CF3)]P[dA][NMeChg][NMeD]-Piperidide; lactam N-11)	8.70
CC[C@H](C)[C@@H]1NC(=O)[C@H](CC(C)C)N(C)C(=O)C[C@@H](C)NC(=O)[C@H](C2CCC2)N(C)C(=O)C2(CCCC2)NC(=O)[C@@H]2CCCN2C(=O)[C@H](CCc2ccc(C(F)(F)F)c(Cl)c2)NC(=O)CN(C)C(=O)[C@H](CC2CCCCC2)N(C)C(=O)CN(C)C(=O)CN(C)C1=O [Compound 183] (cyclo([Ac5c][NMeGly(cBu)][d(β3hA)][NMeL]I[Sar][Sar][NMeCha][Sar][hPhe(3-Cl-4-CF3)]P))	7.59
CC[C@H](C)[C@@H]1NC(=O)[C@H](C)N(C)C(=O)C[C@@H](C(=O)N2CCCCC2)N(C)C(=O)[C@H](C(C)C)N(C)C(=O)[C@H](CC(F)(F)F)NC(=O)[C@H](CCN2CC(F)(F)C2)N(C)C(=O)[C@H](CCc2ccc(C(F)(F)F)c(Cl)c2)NC(=O)CN(C)C(=O)[C@H](CC2CCCCC2)N(C)C(=O)CN(C)C(=O)CN(C)C1=O [Compound 1104] ([NMeA]I[Sar][Sar][NMeCha][Sar][hPhe(3-Cl-4-CF3)][NMeDab(N,N-(CH2CF2CH2))][Abu(4,4,4-F3)][NMeV][NMeD]-Piperidide; lactam N-11)	7.96
CC(C)C[C@H]1C(=O)N[C@@H](CCS(C)(=O)=O)C(=O)N(C)CC(=O)N(C)CC(=O)N(C)[C@@H](CC2CCCCC2)C(=O)N(C)CC(=O)N[C@@H](CCc2ccc(C(F)(F)F)c(Cl)c2)C(=O)N2CCC[C@H]2C(=O)NC2(CCCC2)C(=O)N(C)[C@@H](C2CCCCC2)C(=O)N(C)[C@H](C(=O)N2CCCCC2)CC(=O)N1C [Compound 283] ([NMeL][Met(O2)][Sar][Sar][NMeCha][Sar][hPhe(3-Cl-4-CF3)]P[Ac5c][NMeChg][NMeD]-Piperidide; lactam N-11)	8.17
CC[C@H](C)[C@@H]1NC(=O)[C@H](CC(C)C)N(C)C(=O)C[C@@H](C(=O)N2CCCCC2)N(C)C(=O)[C@H](COC2CC2)N(C)C(=O)C2(CCCC2)NC(=O)[C@@H]2CCCN2C(=O)[C@H](CCc2ccc(C(F)(F)F)c(Cl)c2)NC(=O)CN(C)C(=O)[C@H](CC2CCCCC2)N(C)C(=O)CN(C)C(=O)CN(C)C1=O [Compound 1857] ([NMeL]I[Sar][Sar][NMeCha][Sar][hPhe(3-Cl-4-CF3)]P[Ac5c][NMeS](Cyclopropyl)[NMeD]-Piperidide; lactam N-11)	7.72
CC[C@H](C)[C@@H]1NC(=O)[C@H](C)N(C)C(=O)C[C@@H](C)NC(=O)[C@H](C(C)C)N(C)C(=O)C2(CCCC2)NC(=O)[C@@H]2CCCN2C(=O)[C@H](CCc2ccc(C(F)(F)F)c(Cl)c2)NC(=O)CN(C)C(=O)[C@H](Cc2ccc(F)cc2)N(C)C(=O)[C@@H]2CCCN2C(=O)CN(C)C1=O [Compound 1732] (cyclo([Ac5c][NMeV][d(β3hA)][NMeA]I[Sar]P[NMePhe(4-F)][Sar][hPhe(3-Cl-4-CF3)]P))	8.26
CC[C@H](C)[C@@H]1NC(=O)[C@H](C2CCCC2)N(C)C(=O)C[C@@H](C)NC(=O)[C@H](C(C)C)N(C)C(=O)C2(CCCC2)NC(=O)[C@@H]2CCCN2C(=O)[C@H](CCc2ccc(C(F)(F)F)c(Cl)c2)NC(=O)CN(C)C(=O)[C@H](CC2CCCCC2)N(C)C(=O)CN(C)C(=O)CN(C)C1=O [Compound 857] (cyclo([Ac5c][NMeV][d(β3hA)][NMeGly(cPent)]I[Sar][Sar][NMeCha][Sar][hPhe(3-Cl-4-CF3)]P))	7.77
CC[C@H](C)[C@@H]1NC(=O)[C@H](CC(C)C)N(C)C(=O)C[C@@H](C(=O)N2CCCCC2)N(C)C(=O)[C@H](C(C)C)N(C)C(=O)C2(CCCC2)NC(=O)[C@H](C)N(C)C(=O)[C@H](CCc2ccc(C(F)(F)F)c(Cl)c2)NC(=O)CN(C)C(=O)[C@H](CC2CCCCC2)N(C)C(=O)[C@@H]2CCN2C(=O)[C@H](C)N(C)C1=O [Compound 1243] ([NMeL]I[NMeA][Aze][NMeCha][Sar][hPhe(3-Cl-4-CF3)][NMeA][Ac5c][NMeV][NMeD]-Piperidide; lactam N-11)	7.57
